The subject of test [1] is Jeko1 TMEM30A−/− cells. As to the kind of experiment: Uptake/engulfment of pHrodo-labeled JeKo-1 PS+ (TMEM30A−/−) cells by CER T cells. The test is classed as cell-based. Particulars: pHrodo label, in vitro co-culture. On the procedure:
FIG. 20: FACs and imaging-based detection of pHrodo dye-labeled tumor cell phagocytosis and endocytosis.
Statistical analysis was performed using 2-way ANOVA.

The test system of test [2] is A2780 ovarian cancer cells. The test can be described thus: Viability and phosphatidylserine exposure of A2780 cells treated with PARP inhibitors (annexin V). The test is classed as cell-based, human. The protocol: Viability (FIG. 31A) and phosphatidylserine (PS) exposure (FIG. 31B) of A2780 cells treated with niraparib or olaparib (both at 0.25 to 6 μM) at 96 hours.
(§1) At day 0, media was exchanged and donor T cells from three subjects (FIG. 28) transduced with CER-1234, CER-1236, or control CER-1183 (FIG. 27A) were added at various effector:target ratios to A2780 cells treated with PARPi to assess chimeric Tim4 receptor-T cell activation, cytokine production, proliferation, and cytotoxic responses. Chimeric Tim4 receptor-T cells immunophenotyping and bulk supernatant analysis was performed on day 2 and day 5 following initiation of co-culture.
Phosphatidylserine exposure on A2780 ovarian cancer cells upon treatment with the small molecule PARP inhibitors niraparib or olaparib was evaluated by annexin v staining to determine the appropriate drug dose. Phosphatidylserine targeting Tim-4 CER constructs designed to enhance cytotoxicity and target-dependent tumor cell fragment uptake were engineered. […] CER-1250 has the same intracellular signaling domains as CER1236 but has a mutated IgV domain with AAAA substitution to abrogate phosphatidylserine binding. Niraparib (0.5 μM) and olaparib (1.5 μM) were used to expose phosphatidylserine on the surface of A2780 cells for CER T cell recognition and cytotoxicity, T-cell activation, and cytokine responses were evaluated. Uptake of antigen by CER-1236 T cells was modeled with human papilloma virus E7 antigen-expressing squamous carcinoma (SCC152) TMEM30A phospholipid flippase knockout cells. […] E7 antigen presentation by CER-1236 T cells was assayed by surface expression of HLA-DR, a marker of T cell activation, on autologous HLA-A2-restricted E7 TCR T cells.
The induction of surface phosphatidylserine expression on A2780 ovarian cells treated with the PARP inhibitors olaparib and niraparib was measured by flow cytometry (FC) using annexin V.

The test system of test [3] is A2780 cells. The conditions noted are these: compared to untreated. On the procedure: FIG. 34B: At 120 hours, the ratio of cells remaining in treated samples compared to untreated A2780 samples was quantified using the incucyte data from FIG. 34A. FIG. 34C: Proliferation of CER T cells in co-culture assays.
as §1
CER T-cell cytotoxic function was evaluated using the Incucyte® live-cell analysis system in co-culture assays with A2780 cells. A2780 cells engineered to constitutively express mCherry were pretreated with 1.5 μM olaparib, 0.5 μM niraparib or no drug for 96 hours. CER T cells (expanded for 6 days after transduction) in T-cell optimizer media containing IL-2, IL-7, and IL-15 were co-cultured with A2780 cells at an effector:target (E:T) ratio of 1:2 in the presence of the same concentrations of olaparib or niraparib.

Test [4] has as its system REC-1 cells. The test can be described thus: Phagocytosis of pHrodo-labeled ibrutinib-treated REC-1 cells by CER T cells. The test is classed as cell-based. Particulars: REC-1 pretreated 10 μM ibrutinib, 16 and 40 hours of co-culture. The source says: FIG. 13A: Representative flow cytometry histograms showing engulfment of pHrodo red-labeled REC-1 target cells by CER1234, CER1161, and CER1183 T cells. FIG. 13B: Graphical summary of flow cytometry data showing engulfment of pHrodo red-labeled REC-1 target cells by CER1234, CER1161, and CER1183 T cells. * P<0.01, ** P<0.001, *** P<0.0001; mean+SD, n=4. FIG. 13C: Representative fluorescence microscopy images (at 40×) showing engulfment of pHrodo red-labeled REC-1 target cells by CER1234, CER1161, and CER1183 T cells. FIG. 13D: Engulfed pHrodo-green-labeled REC-1 tumor fragments co-localize into Lyso-tracker red-labeled lysosomes.
Phagocytosis was assessed in co-culture assays of REC-1 cells with CER T cells. […] The percentage of pHrodo red-positive cells was determined by flow cytometry after 16 or 40 hours of co-culture. The localization of tumor fragments in CER T-cell lysosomal compartments was assessed in a separate experiment with REC-1 cells labeled with pHrodo green; following co-culture, all cells were labeled with Lyso-tracker red. Visualization of engulfment was performed by fluorescence microscopy. 1-way ANOVA with Dunnett's post hoc test was performed compared with untransduced T cells.

Test [5] concerns REC-1 cells. As to the kind of experiment: CER T cell cytotoxicity against REC-1 mCherry cells with ibrutinib (Incucyte). The test is classed as cell-based. Particulars: REC-1 cells. The source says:
FIG. 38: CER1236 T cells have enhanced and more complete cytotoxic effect against Ibrutinib-treated REC-1 MCL cells but not untreated REC-1 MCL cells.
Ibrutinib was washed off prior to co-culture with CER T cells. […] Total fluorescence of REC-1 mCherry cells decreased as cytotoxicity occurred.

For test [6], the system named is REC-1 cells. The test can be described thus: T-cell activation markers PD-1 and 4-1BB in co-culture with REC-1 cells (flow cytometry). The test is classed as cell-based. Particulars: co-culture with REC-1 cells in the presence of 0.5 μM ibrutinib, 96 hours. The protocol: FIGS. 15A-15B: Induction of Cell-Surface Markers of T-Cell Activation in Ibrutinib-Treated Co-Cultures of CER1183 and CER1234 T cells and REC-1 Target Cells. Samples depicted in bar graphs from left to right, untransduced, CER-1183, and CER-1234. FIG. 15A: PD-1 expression in co-cultures. FIG. 15B: 4-1BB expression in co-cultures.
T-cell activation markers programmed death-1 (PD-1) and 4-1BB were evaluated on viable CD3+ T cells by flow cytometry using commercially available fluorochrome-conjugated antibodies. […] Assays were conducted 96 hours after initiation of co-culture of CER T cells with REC-1 cells.
For orientation: In flow cytometry, cells or beads pass a laser one at a time.

The test system of test [7] is REC-1 cells. The test can be described thus: Cytokine induction in CER T / REC-1 co-cultures (multiparametric ELISA). The test is classed as cell-based. The conditions noted are these: co-culture with REC-1 cells, 0.5 μM ibrutinib, 96 hours. The protocol: FIGS. 16A-16H: Induction of Cytokines in Ibrutinib-Treated Co-Cultures of CER1183 and CER1234 T cells and REC-1 Target Cells. Samples depicted in bar graphs from left to right, untransduced, CER-1183, and CER-1234. FIG. 16A: TNFα induction. FIG. 16B: IL-2 induction. FIG. 16C: IFNγ. FIG. 16D: IL-5 induction. FIG. 16E: IL-6 induction. FIG. 16F: IL-10 induction. FIG. 16G: IL-4 induction. FIG. 16H: granzyme B induction.
Cytokine induction was assessed by multiparametric ELISA using conditioned supernatants harvested after 96 hours in the cytotoxicity assay described above.
(§2) CER T-cell activation was assessed by measuring induction of IFN-gamma by plate- and cell-based assays. Single induction plate assay: varying concentrations of phosphatidylserine (PS) or phosphatidylethanolamine (PE), a control membrane phospholipid not recognized by wild type TIM-4 (wtTIM-4), were coated onto high-binding tissue culture plates. CER T cells were added and IFN-γ levels were measured 24 hours after ligand exposure by ELISA. EC50 concentrations were determined by nonlinear regression (agonist vs. response-variable slope (4 parameters)). Induction by recursive stimulation plate assay: CER T cells were added to phosphatidylserine coated plates (2.5-20 μg/mL PS coating). Five days later, CER T cells were transferred to uncoated plates with fresh T cell optimizer media for 24 hours. Then, CER T cells were transferred again to a fresh PS coated plate. Supernatant was collected to assess IFN-γ induction by ELISA at various timepoints during re-stimulation (24, 72, and 120 hours). Cell-based assay: cytokine induction was assessed by multiparametric ELISA using conditioned supernatants harvested after 120 hours from the cytotoxicity assay described below.
On the technique in general: In an ELISA, binding on a coated surface is turned into a signal by an enzyme label.

The test system of test [8] is phosphatidylserine (PS). The test can be described thus: Single induction plate assay: IFN-γ by CER T cells on plate-bound phosphatidylserine (ELISA). The test is classed as cell-based. Particulars: plate-bound PS.
Source text: FIGS. 19A-19C: CER T cells are activated and produce IFN-γ in response to phosphatidylserine engagement in a cell-free in vitro system. FIG. 19A: IFN-γ production in response phosphatidylserine (PS). IFN-γ production was induced in CER-1236 and CER-1234 T cells stimulated with PS (FIG. 19A), but not with phosphatidylethanolamine (PE) (FIG. 19B). […] FIG. 19C: CER1236 T cells are capable of recursive stimulation in vitro. Recursive IFN-γ induction with 3 serial stimulations at the indicated time points following a 24-hour rest after the first stimulation.
FIG. 33A-33C: CER T cells are activated and produce IFN-γ in response to phosphatidylserine engagement in a cell-free in vitro system. FIG. 33A: IFN-γ production in response phosphatidylserine (PS). IFN-γ production was induced in CER-1236 and CER-1234 T cells stimulated with PS (FIG. 33A), but not with phosphatidylethanolamine (PE) (FIG. 33B). […] FIG. 33C: CER1236 T cells are capable of recursive stimulation in vitro. Recursive IFN-γ induction with 3 serial stimulations at the indicated time points following a 24-hour rest after the first stimulation.
FIG. 44 are graphs showing IFNγ production in CER1234 T cells (left) or CER1236 T cells (right) from three donors in response to titrating doses of plate-bound phosphatidylserine.
FIG. 45 are graphs showing IFNγ production in CER1234 T cells or CER1236 T cells by donor in response to increasing doses of plate-bound phosphatidylserine.
FIG. 46 are graphs showing IFNγ production in CER1234 T cells or CER1236 T cells by donor in response to increasing doses of plate-bound phosphatidylserine at day 14 post-thaw.
FIG. 47 are graphs showing T cell expansion (left), IFNγ production (center), and cell viability (right) in CER1236 T cells in response to increasing doses of plate-bound phosphatidylserine.
FIG. 48 are graphs showing T cell expansion (left), IFNγ production (center), and cell viability (right) in CER1234 T cells in response to increasing doses of plate-bound phosphatidylserine.
as §2
T cells obtained from three different donors were transduced with CER1234 or CER1236 and incubated on titrating doses of plate-bound phosphatidylserine.
24 hour IFNγ stimulation by plate-bound phosphatidylserine aligns with day 5 post-activation expansion for CER1236 T cells. […] 24 hour IFNγ stimulation by plate-bound phosphatidylserine aligns with day 5 post-activation expansion for CER1234 T cells.

With `CO/C1=C\C(C)=C\[C@@H](C)[C@@H](O)[C@@H](C)C/C(C)=C/C=C/[C@H](OC)[C@@H]([C@@H](C)[C@@H](O)[C@H](C)[C@@]2(O)C[C@@H](O)[C@H](C)[C@@H](C(C)C)O2)OC1=O` [Bafilomycin A, reference compound], the “uptake/engulfment of JeKo-1 PS+ (TMEM30A−/−) tumor cell fragments” value in test [1] is “blocked tumor cell fragment uptake”.

As to `C=C1[C@@H](C)[C@H]2[C@H](Cc3ccccc3)NC(=O)[C@]23[C@H](OC(C)=O)/C=C/[C@@](C)(O)C(=O)[C@@H](C)C/C=C/[C@H]3[C@@H]1O` [Cytochalasin D, reference compound], the “uptake/engulfment of JeKo-1 PS+ (TMEM30A−/−) tumor cell fragments” value in test [1] is listed as “blocked tumor cell fragment uptake”.

In the case of `O=C(c1cc(Cc2n[nH]c(=O)c3ccccc23)ccc1F)N1CCN(C(=O)C2CC2)CC1` [olaparib], the “effective concentration that killed 25% cells (EC25)” value in test [2] (A2780 cells) is 1500 nM. In test [2] (subtherapeutic doses, 96 hours), the “phosphatidylserine exposure on viable A2780 cells” value was “induce phosphatidylserine exposure on viable A2780 cells”. Further, the “A2780 cells eliminated, single agent” value in test [3] is given as 34%.

With “CER1161: Tim4 binding domain-CD28tm-CD28icd-CD3zICD, SEQ ID NO:21”, the “engulfment of pHrodo red+ target cells” value in test [4] was “increased engulfment of pHrodo red+target cells relative to untransduced T cells”.

B1: CER 1183: wildtype human Tim4, SEQ ID NO:20; control molecule lacking intracellular T-cell signaling domains (protein)
chain: MSKEPLILWLMIEFWWLYLTPVTSETVVTEVLGHRVTLPCLYSSWSHNSNSMCWGKDQCPYSGCKEALIRTDGMRVTSRKSAKYRLQGTIPRGDVSLTILNPSESDSGVYCCRIEVPGWFNDVKINVRLNLQRASTTTHRTATTTTRRTTTTSPTTTRQMTTTPAALPTTVVTTPDLTTGTPLQMTTIAVFTTANTCLSLTPSTLPEEATGLLTPEPSKEGPILTAESETVLPSDSWSSVESTSADTVLLTSKESKVWDLPSTSHVSMWKTSDSVSSPQPGASDTAVPEQNKTTKTGQMDGIPMSMKNEMPISQLLMIIAPSLGFVLFALFVAFLRGKLMETYCSQKHTRLDYIGDSKNVLNDVQHGREDEDGLFTL
Turning to B1, the “tumor cell killing in combination with ibrutinib” value in test [5] was “no additive effect with ibrutinib”. For the same molecule, in test [6], the “PD-1 and 4-1BB expression on the T-cell surface” value is “not increased”. Also, the “cytokine induction: TNF-α, IFN-γ, IL-10, IL-5, granzyme B” value in test [7] was “not induced”. In test [8], the “IFN-γ production in response to phosphatidylserine” value is “did not induce IFN-γ”.

Source of the values: US20250127896A1, “CHIMERIC TIM4 RECEPTORS AND USES THEREOF” (CERO THERAPEUTICS HOLDINGS, INC., priority 2021, published 2025).
